Assay: Drug-drug interaction study between pulsed, inhaled nitric oxide and sildenafil in healthy volunteers
Description: Inhaled Nitric Oxide (iNO) has been approved for use in infants with hypoxic respiratory failure. Nitric oxide is a selective pulmonary vasodilator, whose action is mediated by the cyclic guanosine monophosphate (cGMP) pathway. […] The objective of this study is to investigate the potential pharmacodynamic interaction between pulsed iNO and sildenafil in healthy volunteers.
Five healthy volunteers received sildenafil for 24 hours prior to the addition of iNO. Changes in pharmacodynamics parameters such as Heart Rate, Blood Pressure, and Oxygen Saturation after dosing with both drugs was assessed for 27 hours and hourly for 4 hours post iNO discontinuation.
FIG. 7 illustrates the protocol design for this study. Briefly, on Day 1, subjects were dosed with sildenafil alone. One dose of 20 mg sildenafil was administered every […] on day 1 for a total of 3 doses on day 1. Vital signs (heart rate, blood pressure, and oxygen saturation) were assessed beginning 1 hour prior to administration of sildenafil and every 30 minutes until 2.5 hours after each dose of sildenafil. Adverse events were also monitored. On days 2-3, the sildenafil regimen was continued as administered on day 1, and supplemented with 27.5 hours of pulsed iNO therapy at 75 mcg/kg individual body weight (IBW)/hr (INOPulse). Vital signs were assessed beginning 1 hour prior to administration of iNO and every 30 minutes until 2.5 hours after each dose of sildenafil. Upon discontinuation of iNO, vital signs were measured hourly for a 4-hour period, and subjects were monitored for syncope and lightheadedness. Nitric oxide metabolites were measured throughout administration of iNO and for 4 hours post-discontinuation of iNO.

SMILES | Synergistic interaction (hypotensive drug-drug interaction) between iNO and sildenafil (even at peak levels of metabolites, all volunteers) | Other adverse events (iNO 75 mcg/kg IBW/hr co-administered with 20 mg sildenafil) | Syncope, lightheadedness, or signs of rebound upon discontinuation of iNO (monitored for 4 hours after iNO discontinuation, sildenafil background) | Systolic and diastolic blood pressures during co-administration of iNO, compared to first 3 doses of sildenafil alone (pulsed iNO 75 mcg/kg IBW/hr for 27.5 hours with 20 mg sildenafil, sildenafil doses 4 and 5, and peak nitric oxide metabolites (doses 6 and 7)) | Blood pressure after dosing with sildenafil alone (5 healthy volunteers, 20 mg sildenafil every 6 hours, all 3 doses on day 1, within 2.5 hours after dosing)
[N]=O [iNO, nitric oxide] | No synergistic interaction | no other adverse events were identified | no instances of syncope, lightheadedness, or signs of possible rebound | no further decline | –
CCCc1nn(C)c2c(=O)[nH]c(-c3cc(S(=O)(=O)N4CCN(C)CC4)ccc3OCC)nc12 [sildenafil] | – | – | – | – | drop in blood pressure

Source: US20220096535A1, “COMBINATION DRUG THERAPIES OF PDE-5 INHIBITORS AND INHALED NITRIC OXIDE” (BELLEROPHON THERAPEUTICS, priority 2019, published 2022)
